The record followed here is patent publication US20230123334A1, “AMINO LIPID COMPOUND, PREPARATION METHOD THEREFOR, AND APPLICATION THEREOF” (SHENZHEN SHENXIN BIOTECHNOLOGY CO., LTD., priority 2020, published 2023).

For the assay, the system named is HEK293 cells. The assay is described as follows: Preliminary screening as mRNA vectors, EGFP mRNA transfection of HEK293 cells. It counts as cell-based. To be noted: EGFP mRNA 50 ng per well, 96-well plates; percentage of GFP fluorescent cells relative to total number of cells (Hoechst). The procedure, abridged: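 HEK293 cells in DMEM plus 10% FBS transfected in 96-well format with 50 ng EGFP mRNA per well; Lipofectamine2000 served as positive control. Read-out is the percentage of GFP-fluorescent cells among total cells, counted by Hoechst nuclear stain.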

The structures appear in SMILES notation.

For `CCCCCCCCCCCCN(CCCCCCCCCCCC)c1nc(NCCN2CCN(C)CC2)nc(SCCCCCCCCCC)n1` [D5S10^2N12], the “Absolute mRNA transfection efficiency in HEK293 cells” value (“Absolute mRNA transfection efficiency” for short) was determined as 0.1%. `CCCCCCCCCCCCN(CCCCCCCCCCCC)c1nc(NCCN2CCN(C)CC2)nc(SCCCCCCCCCCC)n1` [D5S11^2N12]: the “Absolute mRNA transfection efficiency” value was determined as 0.6%. Consider `CCCCCCCCCCCCSc1nc(NCCN2CCN(C)CC2)nc(N(CCCCCCCCCCCC)CCCCCCCCCCCC)n1` [D5S12^2N12], for which the “Absolute mRNA transfection efficiency” value was found to be 1.6%. Turning to `CCCCCCCCCCCCCCSc1nc(NCCN2CCN(C)CC2)nc(N(CCCCCCCCCCCC)CCCCCCCCCCCC)n1` [D5S14^2N12], the “Absolute mRNA transfection efficiency” value is given as 0.9%. As to `CCCCCCCCCCCCCCCSc1nc(NCCN2CCN(C)CC2)nc(N(CCCCCCCCCCCC)CCCCCCCCCCCC)n1` [D5S15^2N12], the “Absolute mRNA transfection efficiency” value is listed as 0.9%. To `CCCCCCCCCCCCCCCCSc1nc(NCCN2CCN(C)CC2)nc(N(CCCCCCCCCCCC)CCCCCCCCCCCC)n1` [D5S16^2N12] belongs 0.1%; to `CCCCCCCCCCCCCCCCCCSc1nc(NCCN2CCN(C)CC2)nc(N(CCCCCCCCCCCC)CCCCCCCCCCCC)n1` [D5S18^2N12], 0.0%; to `CCCCCCCCCCCCN(CCCCCCCCCCCC)c1nc(NCCCN(C)C)nc(SCCCCCC)n1` [D6S6^2N12], 0.0%. As for `CCCCCCCCCCCCN(CCCCCCCCCCCC)c1nc(NCCCN(C)C)nc(SCCCCCCC)n1` [D6S7^2N12], the “Absolute mRNA transfection efficiency” value is on record as 0.9%. For the compound `CCCCCCCCCCCCN(CCCCCCCCCCCC)c1nc(NCCCN(C)C)nc(SCCCCCCCC)n1` [D6S8^2N12], the “Absolute mRNA transfection efficiency” value came out at 1.5%.

As to `CCCCCCCCCCCCN(CCCCCCCCCCCC)c1nc(NCCCN(C)C)nc(SCCCCCCCCC)n1` [D6S9^2N12], the “Absolute mRNA transfection efficiency” value was determined as 1.7%. Then `CCCCCCCCCCCCN(CCCCCCCCCCCC)c1nc(NCCCN(C)C)nc(SCCCCCCCCCC)n1` [D6S10^2N12], with 0.1%; and `CCCCCCCCCCCCN(CCCCCCCCCCCC)c1nc(NCCCN(C)C)nc(SCCCCCCCCCCC)n1` [D6S11^2N12], with 3.2%. Take `CCCCCCCCCCCCSc1nc(NCCCN(C)C)nc(N(CCCCCCCCCCCC)CCCCCCCCCCCC)n1` [D6S12^2N12]: the “Absolute mRNA transfection efficiency” value amounted to 2.4%. For the compound `CCCCCCCCCCCCCCSc1nc(NCCCN(C)C)nc(N(CCCCCCCCCCCC)CCCCCCCCCCCC)n1` [D6S14^2N12], the “Absolute mRNA transfection efficiency” value amounted to 0.1%.

As for `CCCCCCCCCCCCCCCSc1nc(NCCCN(C)C)nc(N(CCCCCCCCCCCC)CCCCCCCCCCCC)n1` [D6S15^2N12], the “Absolute mRNA transfection efficiency” value came to 2.9%.

As to `CCCCCCCCCCCCCCCCSc1nc(NCCCN(C)C)nc(N(CCCCCCCCCCCC)CCCCCCCCCCCC)n1` [D6S16^2N12], the “Absolute mRNA transfection efficiency” value is on record as 1.0%. Regarding `CCCCCCCCCCCCCCCCCCSc1nc(NCCCN(C)C)nc(N(CCCCCCCCCCCC)CCCCCCCCCCCC)n1` [D6S18^2N12], the “Absolute mRNA transfection efficiency” value came out at 0.1%. In the case of `CCCCCCCCCCCCN(CCCCCCCCCCCC)c1nc(NCCN(CC)CC)nc(SCCCCCC)n1` [D7S6^2N12], the “Absolute mRNA transfection efficiency” value worked out at 0.2%. As for `CCCCCCCCCCCCN(CCCCCCCCCCCC)c1nc(NCCN(CC)CC)nc(SCCCCCCC)n1` [D7S7^2N12], the “Absolute mRNA transfection efficiency” value came to 1.2%. To `CCCCCCCCCCCCN(CCCCCCCCCCCC)c1nc(NCCN(CC)CC)nc(SCCCCCCCC)n1` [D7S8^2N12] belongs 1.3%; to `CCCCCCCCCCCCN(CCCCCCCCCCCC)c1nc(NCCN(CC)CC)nc(SCCCCCCCCC)n1` [D7S9^2N12], 0.2%; to `CCCCCCCCCCCCN(CCCCCCCCCCCC)c1nc(NCCN(CC)CC)nc(SCCCCCCCCCC)n1` [D7S10^2N12], 0.0%. For the compound `CCCCCCCCCCCCN(CCCCCCCCCCCC)c1nc(NCCN(CC)CC)nc(SCCCCCCCCCCC)n1` [D7S11^2N12], the “Absolute mRNA transfection efficiency” value turned out to be 0.7%. Then `CCCCCCCCCCCCSc1nc(NCCN(CC)CC)nc(N(CCCCCCCCCCCC)CCCCCCCCCCCC)n1` [D7S12^2N12], with 1.9%; and `CCCCCCCCCCCCCCSc1nc(NCCN(CC)CC)nc(N(CCCCCCCCCCCC)CCCCCCCCCCCC)n1` [D7S14^2N12], with 0.1%.

Regarding `CCCCCCCCCCCCCCCSc1nc(NCCN(CC)CC)nc(N(CCCCCCCCCCCC)CCCCCCCCCCCC)n1` [D7S15^2N12], the “Absolute mRNA transfection efficiency” value was 1.8%. Then `CCCCCCCCCCCCCCCCSc1nc(NCCN(CC)CC)nc(N(CCCCCCCCCCCC)CCCCCCCCCCCC)n1` [D7S16^2N12], with 0.8%; and `CCCCCCCCCCCCCCCCCCSc1nc(NCCN(CC)CC)nc(N(CCCCCCCCCCCC)CCCCCCCCCCCC)n1` [D7S18^2N12], with 0.0%.

With `CCCCCCCCCCCCN(CCCCCCCCCCCC)c1nc(NCCCN2CCOCC2)nc(SCCCCCC)n1` [D8S6^2N12], the “Absolute mRNA transfection efficiency” value turned out to be 0.0%. Turning to `CCCCCCCCCCCCN(CCCCCCCCCCCC)c1nc(NCCCN2CCOCC2)nc(SCCCCCCC)n1` [D8S7^2N12], the “Absolute mRNA transfection efficiency” value was determined as 0.6%. Turning to `CCCCCCCCCCCCN(CCCCCCCCCCCC)c1nc(NCCCN2CCOCC2)nc(SCCCCCCCC)n1` [D8S8^2N12], the “Absolute mRNA transfection efficiency” value is given as 0.1%.

Regarding `CCCCCCCCCCCCN(CCCCCCCCCCCC)c1nc(NCCCN2CCOCC2)nc(SCCCCCCCCC)n1` [D8S9^2N12], the “Absolute mRNA transfection efficiency” value turned out to be 0.3%.

`CCCCCCCCCCCCN(CCCCCCCCCCCC)c1nc(NCCCN2CCOCC2)nc(SCCCCCCCCCC)n1` [D8S10^2N12]: the “Absolute mRNA transfection efficiency” value turned out to be 0.0%.

Take `CCCCCCCCCCCCN(CCCCCCCCCCCC)c1nc(NCCCN2CCOCC2)nc(SCCCCCCCCCCC)n1` [D8S11^2N12]: the “Absolute mRNA transfection efficiency” value amounted to 0.4%. For the compound `CCCCCCCCCCCCSc1nc(NCCCN2CCOCC2)nc(N(CCCCCCCCCCCC)CCCCCCCCCCCC)n1` [D8S12^2N12], the “Absolute mRNA transfection efficiency” value stood at 3.4%. On to `CCCCCCCCCCCCCCSc1nc(NCCCN2CCOCC2)nc(N(CCCCCCCCCCCC)CCCCCCCCCCCC)n1` [D8S14^2N12], for which the “Absolute mRNA transfection efficiency” value is listed as 0.1%. To `CCCCCCCCCCCCCCCSc1nc(NCCCN2CCOCC2)nc(N(CCCCCCCCCCCC)CCCCCCCCCCCC)n1` [D8S15^2N12] belongs 2.9%. Regarding `CCCCCCCCCCCCCCCCSc1nc(NCCCN2CCOCC2)nc(N(CCCCCCCCCCCC)CCCCCCCCCCCC)n1` [D8S16^2N12], the “Absolute mRNA transfection efficiency” value is listed as 0.0%.

Regarding `CCCCCCCCCCCCCCCCCCSc1nc(NCCCN2CCOCC2)nc(N(CCCCCCCCCCCC)CCCCCCCCCCCC)n1` [D8S18^2N12], the “Absolute mRNA transfection efficiency” value turned out to be 0.0%. As to `CCCCCCCCCCCCN(CCCCCCCCCCCC)c1nc(NCCCN2CCN(C)CC2)nc(SCCCCCC)n1` [D9S6^2N12], the “Absolute mRNA transfection efficiency” value is reported as 0.1%. Turning to `CCCCCCCCCCCCN(CCCCCCCCCCCC)c1nc(NCCCN2CCN(C)CC2)nc(SCCCCCCC)n1` [D9S7^2N12], the “Absolute mRNA transfection efficiency” value is 1.0%. With `CCCCCCCCCCCCN(CCCCCCCCCCCC)c1nc(NCCCN2CCN(C)CC2)nc(SCCCCCCCC)n1` [D9S8^2N12], the “Absolute mRNA transfection efficiency” value came out at 0.6%.

Turning to `CCCCCCCCCCCCN(CCCCCCCCCCCC)c1nc(NCCCN2CCN(C)CC2)nc(SCCCCCCCCC)n1` [D9S9^2N12], the “Absolute mRNA transfection efficiency” value was determined as 0.3%. As to `CCCCCCCCCCCCN(CCCCCCCCCCCC)c1nc(NCCCN2CCN(C)CC2)nc(SCCCCCCCCCC)n1` [D9S10^2N12], the “Absolute mRNA transfection efficiency” value is reported as 0.3%.

For `CCCCCCCCCCCCN(CCCCCCCCCCCC)c1nc(NCCCN2CCN(C)CC2)nc(SCCCCCCCCCCC)n1` [D9S11^2N12], the “Absolute mRNA transfection efficiency” value was 0.0%. In the case of `CCCCCCCCCCCCSc1nc(NCCCN2CCN(C)CC2)nc(N(CCCCCCCCCCCC)CCCCCCCCCCCC)n1` [D9S12^2N12], the “Absolute mRNA transfection efficiency” value was determined as 0.8%. With `CCCCCCCCCCCCCCSc1nc(NCCCN2CCN(C)CC2)nc(N(CCCCCCCCCCCC)CCCCCCCCCCCC)n1` [D9S14^2N12], the “Absolute mRNA transfection efficiency” value stood at 0.1%. For `CCCCCCCCCCCCCCCSc1nc(NCCCN2CCN(C)CC2)nc(N(CCCCCCCCCCCC)CCCCCCCCCCCC)n1` [D9S15^2N12], the “Absolute mRNA transfection efficiency” value stood at 0.4%. In the case of `CCCCCCCCCCCCCCCCSc1nc(NCCCN2CCN(C)CC2)nc(N(CCCCCCCCCCCC)CCCCCCCCCCCC)n1` [D9S16^2N12], the “Absolute mRNA transfection efficiency” value came out at 2.7%. `CCCCCCCCCCCCCCCCCCSc1nc(NCCCN2CCN(C)CC2)nc(N(CCCCCCCCCCCC)CCCCCCCCCCCC)n1` [D9S18^2N12]: the “Absolute mRNA transfection efficiency” value worked out at 0.0%. To `CCCCCCCCCCCCN(CCCCCCCCCCCC)c1nc(NCC2CCN(C)CC2)nc(SCCCCCC)n1` [D10S6^2N12] belongs 0.1%; to `CCCCCCCCCCCCN(CCCCCCCCCCCC)c1nc(NCC2CCN(C)CC2)nc(SCCCCCCC)n1` [D10S7^2N12], 1.4%; to `CCCCCCCCCCCCN(CCCCCCCCCCCC)c1nc(NCC2CCN(C)CC2)nc(SCCCCCCCC)n1` [D10S8^2N12], 1.5%. Turning to `CCCCCCCCCCCCN(CCCCCCCCCCCC)c1nc(NCC2CCN(C)CC2)nc(SCCCCCCCCC)n1` [D10S9^2N12], the “Absolute mRNA transfection efficiency” value turned out to be 7.7%. Consider `CCCCCCCCCCCCN(CCCCCCCCCCCC)c1nc(NCC2CCN(C)CC2)nc(SCCCCCCCCCC)n1` [D10S10^2N12], for which the “Absolute mRNA transfection efficiency” value is reported as 0.2%.

For the compound `CCCCCCCCCCCCN(CCCCCCCCCCCC)c1nc(NCC2CCN(C)CC2)nc(SCCCCCCCCCCC)n1` [D10S11^2N12], the “Absolute mRNA transfection efficiency” value was 0.0%.
